Data from patent US10138255B2, “Piperazine derivatives as HIV protease inhibitors” (Merck Sharp & Dohme Corp., priority 2014, dated 2018).

Tested on: HIV-1 (H9IIIB strain)
Test: Cell-Based HIV Infection Assay Using a Reporter (MT4-GFP cells)
Settings: Human immunodeficiency virus 1, inflection point (IP) of viral growth inhibition; MT4-GFP cells infected with HIV-1 H9IIIB; 50% normal human serum; mean of at least two independent experiments; read-out: Cell Based IP (50% NHS)
How it was run: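 MT4-GFP cells (HIV LTR-driven GFP) bulk-infected with HIV-1 H9IIIB at low MOI for 24 h, washed, then exposed to compounds in RPMI plus 50% normal human serum, 0.4% DMSO. Infected cells counted at 24 and 48 h; R0 = 48 h/24 h ratio, inhibition normalised to DMSO and triple-drug control; IP from 4-parameter fit.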

Question: Which EC50 does the source give for COc1ccc([C@H](c2ccc(Cl)cc2)[C@H](N)C(=O)N[C@H]2CCC[C@@H]2CC[C@H]2CN[C@@H]3CCCS(=O)(=O)N2C3)cn1 [Example 80, (βS)-4-chloro-N-[(1S,2R)-2-{2-[(6R,9S)-2,2-dioxido-2-thia-1,7-diazabicyclo[4.3.1]dec-9-yl]ethyl}cyclopentyl]-β-(6-methoxypyridin-3-yl)-L-phenylalaninamide] here?
Answer: 71 nM

Question: How did the EC50 turn out when COC(=O)N[C@H](C(=O)Nc1cccc(F)c1CCC1CNC2CCCS(=O)(=O)N1C2)[C@@H](c1ccc(F)cc1)c1ccc2c(c1)CCC2 (stereo partly drawn) [Example 34, Methyl [(1S,2S)-2-(2,3-dihydro-1H-inden-5-yl)-1-({2-[2-(2,2-dioxido-2-thia-1,7-diazabicyclo[4.3.1]dec-9-yl)ethyl]-3-fluorophenyl}carbamoyl)-2-(4-fluorophenyl)ethyl]carbamate] was run?
Answer: 23 nM

Question: For COC(=O)N[C@H](C(=O)Nc1cccc(F)c1CCC1CNC2CCCS(=O)(=O)N1C2)[C@@H](c1ccc(Cl)cc1)C1CCOC(CC(F)(F)F)C1 (stereo partly drawn) [Example 172, methyl {(1S,2R)-2-(4-chlorophenyl)-1-({2-[2-(2,2-dioxido-2-thia-1,7-diazabicyclo[4.3.1]dec-9-yl)ethyl]-3-fluorophenyl}carbamoyl)-2-[2-(2,2,2-trifluoroethyl)tetrahydro-2H-pyran-4-yl]ethyl}carbamate], which EC50 is on record?
Answer: 38 nM

Question: With CC(F)(F)c1ccc([C@H](c2ccc(Cl)cc2)[C@H](N)C(=O)Nc2cccc(F)c2CC[C@H]2CN[C@@H]3CCCS(=O)(=O)N2C3)cn1 [Example 12, (2S,3S)-2-amino-3-(4-chlorophenyl)-3-(6-(1,1-difluoroethyl)pyridin-3-yl)-N-(2-(2-((6R,9S)-2,2-dioxido-2-thia-1,7-diazabicyclo[4.3.1]decan-9-yl)ethyl)-3-fluorophenyl)propanamide] as the molecule, how does the EC50 read?
Answer: 5.9 nM

Question: Which EC50 does the source give for COC(=O)N[C@H](C(=O)Nc1cccc(F)c1CCC1CNC2CCCS(=O)(=O)N1C2)[C@@H](c1ccc(F)cc1)c1cccc(C2CC2)c1 (stereo partly drawn) [Example 52, methyl [(1S,2S)-2-(3-cyclopropylphenyl)-1-({2-[2-(2,2-dioxido-2-thia-1,7-diazabicyclo[4.3.1]dec-9-yl)ethyl]-3-fluorophenyl}carbamoyl)-2-(4-fluorophenyl)ethyl]carbamate] here?
Answer: 72 nM

Question: How did the EC50 turn out when COC[C@H]1CC[C@H]([C@H](c2ccc(Cl)cc2)[C@H](N)C(=O)Nc2cncc(F)c2CC[C@H]2CN[C@@H]3CCCS(=O)(=O)N2C3)CC1 [Example 254, (βR)-4-chloro-N-(4-{2-[(6R,9S)-2,2-dioxido-2-thia-1,7-diazabicyclo[4.3.1]dec-9-yl]ethyl}-5-fluoropyridin-3-yl)-β-[(1r,4R)-4-(methoxymethyl)cyclohexyl]-L-phenylalaninamide] was run?
Answer: 3 nM

Question: With N[C@H](C(=O)N[C@H]1CCCC[C@@H]1CC[C@H]1CN[C@@H]2CCCS(=O)(=O)N1C2)[C@H](c1cncc(F)c1)c1ccc(Cl)c(F)c1 [Example 145, (βS)-4-chloro-N-[(1S,2R)-2-{2-[(6R,9S)-2,2-dioxido-2-thia-1,7-diazabicyclo[4.3.1]dec-9-yl]ethyl}cyclohexyl]-3-fluoro-β-(5-fluoropyridin-3-yl)-L-phenylalaninamide] as the molecule, how does the EC50 read?
Answer: 76 nM

Question: For CC1(C)CC([C@H](c2ccc(Cl)cc2)[C@H](N)C(=O)N[C@H]2CCC[C@@H]2CC[C@H]2CN[C@@H]3CCCS(=O)(=O)N2C3)CCO1 (stereo partly drawn) [Example 55, (βR)-4-chloro-β-(2,2-dimethyltetrahydro-2H-pyran-4-yl)-N-[(1S,2R)-2-{2-[(6R,9S)-2,2-dioxido-2-thia-1,7-diazabicyclo[4.3.1]dec-9-yl]ethyl}cyclopentyl]-L-phenylalaninamide], which EC50 is on record?
Answer: 80 nM

Question: CC(C)n1cc([C@H](c2ccc(Cl)cc2)[C@H](N)C(=O)Nc2cccc(F)c2CCC2CNC3CCCS(=O)(=O)N2C3)ccc1=O (stereo partly drawn) [Example 95, (βS)-4-chloro-N-{2-[2-(2,2-dioxido-2-thia-1,7-diazabicyclo[4.3.1]dec-9-yl)ethyl]-3-fluorophenyl}-β-[1-(1-methylethyl)-6-oxo-1,6-dihydropyridin-3-yl]-L-phenylalaninamide] was tested. Which EC50 did it give?
Answer: 63 nM

Question: For CC(C)[C@H](c1ccc(Cl)cc1)[C@H](N)C(=O)Nc1cncc(F)c1CC[C@H]1CN[C@@H]2CCCS(=O)(=O)N1C2 [Example 238, (2S,3R)-2-amino-3-(4-chlorophenyl)-N-(4-(2-((6R,9S)-2,2-dioxido-2-thia-1,7-diazabicyclo[4.3.1]decan-9-yl)ethyl)-5-fluoropyridin-3-yl)-4-methylpentanamide], which EC50 is on record?
Answer: 13 nM

Question: How did the EC50 turn out when COC(=O)N[C@H](C(=O)Nc1cccc(F)c1CCC1CNC2CCCS(=O)(=O)N1C2)[C@@H](c1ccc(Cl)cc1)C1CCC(F)(F)CC1 (stereo partly drawn) [Example 5, Methyl [(1S,2R)-2-(4-chlorophenyl)-2-(4,4-difluorocyclohexyl)-1-({2-[2-(2,2-dioxido-2-thia-1,7-diazabicyclo[4.3.1]dec-9-yl)ethyl]-3-fluorophenyl}carbamoyl)ethyl]carbamate] was run?
Answer: 9.4 nM

Question: Cn1nc(C(F)(F)F)cc1[C@H](c1ccc(Cl)c(F)c1)[C@H](N)C(=O)Nc1cncc(F)c1CC[C@H]1CN[C@@H]2CCCS(=O)(=O)N1C2 [Example 268, (βR)-4-chloro-N-(4-{2-[(6R,9S)-2,2-dioxido-2-thia-1,7-diazabicyclo[4.3.1]dec-9-yl]ethyl}-5-fluoropyridin-3-yl)-3-fluoro-β-[1-methyl-3-(trifluoromethyl)-1H-pyrazol-5-yl]-L-phenylalaninamide] was tested. Which EC50 did it give?
Answer: 18 nM

Question: N[C@H](C(=O)Nc1cccc(F)c1OCC1CNC2CCCS(=O)(=O)N1C2)[C@@H](c1ccc(F)cc1)c1cc(F)cc(F)c1 (stereo partly drawn) [Example 84, (βS)-β-(3,5-difluorophenyl)-N-{2-[(2,2-dioxido-2-thia-1,7-diazabicyclo[4.3.1]dec-9-yl)methoxy]-3-fluorophenyl}-4-fluoro-L-phenylalaninamide] was tested. Which EC50 did it give?
Answer: 210 nM

Question: How did the EC50 turn out when CS(=O)(=O)N1CCC([C@H](c2ccc(F)cc2)[C@H](N)C(=O)Nc2cccc(F)c2CC[C@H]2CN[C@@H]3CCCS(=O)(=O)N2C3)CC1 [Example 186, (βR)-N-(2-{2-[(6R,9S)-2,2-dioxido-2-thia-1,7-diazabicyclo[4.3.1]dec-9-yl]ethyl}-3-fluorophenyl)-4-fluoro-β-[1-(methylsulfonyl)piperidin-4-yl]-L-phenylalaninamide] was run?
Answer: 33 nM

Question: Which EC50 does the source give for N[C@H](C(=O)N[C@H]1CCC[C@@H]1CC[C@H]1CN[C@@H]2CCCS(=O)(=O)N1C2)[C@@H](c1ccc(Cl)cc1)C1CCS(=O)(=O)CC1 [Example 157, (βR)-4-chloro-β-(1,1-dioxidotetrahydro-2H-thiopyran-4-yl)-N-[(1S,2R)-2-{2-[(6R,9S)-2,2-dioxido-2-thia-1,7-diazabicyclo[4.3.1]dec-9-yl]ethyl}cyclopentyl]-L-phenylalaninamide] here?
Answer: 3400 nM

Question: With CC(C)Oc1cnc([C@H](c2ccc(Cl)cc2)[C@H](N)C(=O)Nc2cncc(F)c2CC[C@H]2CN[C@@H]3CCCS(=O)(=O)N2C3)cn1 [Example 263, (βR)-4-chloro-N-(4-{2-[(6R,9S)-2,2-dioxido-2-thia-1,7-diazabicyclo[4.3.1]dec-9-yl]ethyl}-5-fluoropyridin-3-yl)-β-[5-(1-methylethoxy)pyrazin-2-yl]-L-phenylalaninamide] as the molecule, how does the EC50 read?
Answer: 5.2 nM
